From patent US8871976B2, “Chalcone structure fluorescence dye for embryonic stem cell probe” (National University of Singapore, priority 2010, dated 2014) come the findings set out here.

Data set [1] deals with induced pluripotent stem cell (iPSC). Nature of the data set: Staining and FACS isolation of induced pluripotent stem cells. The data set is classed as cell-based, mouse. The note with it: iPSC from MEF of Oct4-GFP transgenic mice. As to the method: The iPS cells were maintained in mESC culture medium which was changed every day until designated time point. 4 dpi iPS was incubated with 2 μM of CDg4 for 1 hr at 37° C. The cells were harvested by trypsin treatment, washed with PBS and resuspended in PBS. The cells gated into SSClow CDg4 bright (R2) and SSChigh CDg4 dim (R1) regions were collected using a FACS machine (BD FACSAria™).
CDg4 was applied to induced pluripotent stem cell (iPSC) which was generated from MEF of transgenic mice that express GFP under the control of Oct4 (also known as Pou5f1) promoter. […] FACS was used to isolate early iPS cell population stained by CDg4. (FIG. 2). Isolation of the early iPS cell population will facilitate gene profiling using DNA microarray of this cell population. While gene expression profiling for mixture populations or using cell lines are reported, with lack of direct marker or probes for early iPS, it was not possible to study with purified early iPS.
The retroviral packaging cell, PlatE cell, was maintained in DMEM containing 10% FBS, 100 U/ml penicillin, 100 μg/ml streptomycin, 10 μg/ml blasticidin 5 and 1 μg/ml puromycin. […]

Data set [2] has as its system mESC and MEF. Briefly: Secondary screening by flow cytometry (mESC and MEF incubated separately). In kind it is cell-based, mouse. The note with it: 2 μM, 1 hour. As to the method:
To evaluate the application of chalcone derivatives as ESC-selective probes, 320 chalcone compounds were screened in mouse ESC (mESC) and mouse embryonic fibroblast (MEF) feeder cells prepared on 384-well cell culture microplates. From the image-based primary screening, 8 compounds that stained mESC consistently with stronger intensity than MEF were selected. For the secondary screening, mESC and MEF were incubated separately with each of the hit compounds and subsequently analyzed using flow cytometry.
(§1) MEFs and mESCs were cultured in 60 mm culture dish for 1 hour in the presence of 2 μM of hit compounds, including CDg4. The cells were harvested by trypsin treatment, washed with PBS and resuspended in PBS. The fluorescence intensity of the cells was measured on Flow Cytometry (BD™ LSR II) with FITC ([…], emission at 560 nm). The dot plot images for each cell type were overlaid using FlowJo7 (Three Star Inc.) For FACS MEF and mESC were cultured in a same dish and the sample was prepared as described above for flow cytometry. The cells gated into SSClow CDgreen4 bright and SSChigh CDgreen4 dim regions were collected using a FACS machine (BD FACSAria™).
(In flow cytometry, cells or beads pass a laser one at a time.)

Data set [3] in a line: Fluorescence property measurement. The data set is classed as physicochemical. As to the method:
All reactions were performed in oven-dried glassware under a positive pressure of nitrogen. Unless otherwise noted, starting materials and solvents were purchased from Aldrich and Acros Organics and used without further purification. Analytical TLC was carried out on Merck 60 F254 silica gel plate (0.25 mm layer thickness) and visualization was done with UV light. Column chromatography was performed on Merck 60 silica gel (230-400 mesh). NMR spectra were recorded on a Bruker Avance 300 NMR spectrometer. Chemical shifts are reported as δ in units of parts per million (ppm) and coupling constants are reported as a J value in Hertz (Hz). Mass of all the compounds was determined by LC-MS of Agilent Technologies with an electrospray ionization source. All fluorescence assays were performed with a Gemini XS fluorescence plate reader.
10 μM solutions in DMSO were prepared and the absorption and emission of library compounds was measured. FIG. 3 is a representative absorbance and fluorescence spectrum.

Data set [4] has as its system mixture of mESC and MEF. Briefly: Enrichment of mESC from mESC/MEF mixture using FACS and fluorescence microscopy. In kind it is cell-based, mouse. The conditions noted are these: for mESC enrichment / sorting from mixed-cell population: FACS, mESC and MEF in same dish; for selective staining of ESC versus MEF feeder: live mESC cultured on MEF feeder, fluorescence microscopy. Here is the method: To confirm the secondary screening data, a mixture of mESC and MEF was incubated with […]. The cell mixture was sorted using Fluorescence-Activated Cell Sorting (FACS).
as §1

Turning to `C=CC(=O)Nc1ccc(C(=O)/C=C/c2ccc(N(C)CCO)cc2)cc1` [CDg4], the “staining of iPSC colony” value in data set [1] is “selectively stained the iPSC colony”. The “selectivity for mESCs (side scatter and fluorescence intensity dot plot overlay of mESC and MEF)” value in data set [2] is recorded as “most selective for mESCs among the 8 hit compounds”. Also, in data set [3], the λem is listed as 560 nm and the λex is reported as 430 nm. In data set [4], the “mESC enrichment / sorting from mixed-cell population” value was “selective sorting and isolation from mixture of Feeder cells even up to day 5”; the “selective staining of ESC versus MEF feeder” value is recorded as “much more brightly stained by CDg4 than MEF”. Besides, in data set [4] (listed as CD4), the “mESC enrichment / sorting from mixed-cell population” value is “can be used for mESC enrichment from a mixed-cell population”. Further, the “selective staining of ESC versus MEF feeder” value in data set [4] (listed as CDgreen4) was “selectively stains embryonic stem cells (ESC) and iPSC in a feeder cell-based culture system”.
